Assay results reported in patent publication US6602852B1, “Basic peptides and pharmaceutical compositions containing same” (NST NeuroSurvival Technologies, Ltd., priority 1998, dated 2003).

Tests used:
[1] = system: Human Umbilical Vein Endothelial Cells (HUVEC); conditions: 500 ng of compound, 40 minutes
Experimental: HUVEC (CC-2517, obtained from Clonetics, Walkersville, Md.) were grown on tissue culture flasks in Endothelial cell medium (EGM-2 Bulletkit, CC 3162, Clonetics). Mid-confluent cultures were harvested using Trypsine/EDTA solution (CC-5012, Clonetics). The cells were rinsed twice with PBS containing 2% BSA and kept on ice. Samples of 10^6 cells were tested for binding.
The reactions were incubated at room temperature for 40 minutes and then 400 μl of TBS-BSA were added and cells were collected by centrifugation at 3000×g for 3 minutes. Cells were washed in 1 ml of TBS-BSA and centrifuged as before and then suspended in 100 μl of TBS-BSA containing streptavidin conjugated to flourescein (FITC) for detection of the bound biotinylated compound. […] Thereafter, 400 μl of TBS-BSA were added and cells were centrifuged and washed again with 1 ml of TBS-BSA as before and then resuspended in 400 μl of TSS and taken for FACS analysis.
The FACS analysis was performed on Beckton-Dickinson cell sorter, using lysis II software. Excitation was at 488 nm and emission for FITC detection was a 535 nm.
A dot plot analysis was done for each treatment.

[2] = system: apoptotic hepatocytes; type: in vivo
Experimental: All animals were killed 2 hr after administration of antibody followed by organ removal. Heart, lung and liver were collected.
Formalin fixed paraffin-embedded tissues were sectioned (5 μm) for staining with Hematoxylin/Eosin or other techniques.
Endogenous peroxidase activity was blocked by incubation with 3% H2O2.
After washing with PBS, staining was developed with 3,3-diaminobenzidine tetrahydrochloride (DAB), and counterstained with Hematoxylin.
Liver sections from different lobes were used for detection of stained apoptotic cells compared to normal cells.
The percentage of apoptotic cells in the fields was estimated by evaluating parallel sections stained with Hematoxylin/Eosin. Analysis was performed blindly, since the pathologist performing the histological evaluation was unaware of the assignment of mice to the treatment or control group.

[3] = system: thrombin generation on apoptotic HeLa cells
Experimental: One of the final steps of both intrinsic and extrinsic pathways of coagulation, is the generation of thrombin from prothrombin. Thrombin is the final protease generated in the sequence of coagulation reaction, and its activity entails conversion of fibrinogen to fibrin, that forms the clot. Generation of thrombin on the pro-coagulant surface of apoptotic cells was assayed (according to Bombeli T. et al., 1997, Blood 89(7), 2429-2442), by determining its activity, using the chromogenic substrate S-2366 (from Chromogenix, Sweden). Samples of pro-coagulant cells (HeLa cells treated with 500 μM of DA for 18 hours) were used for the assay.

[4] = system: HeLa cells undergoing dopamine-induced apoptosis; conditions: 750 nM
Experimental: HeLa cells were plated on tissue culture plates at a density of 3×10^6 cells/10 cm dish, and grown in a DMEM medium containing 10% FCS, as described in A. The cells were then incubated at 37° C. overnight, and then the medium was replaced with a medium containing 2% FCS and 500 μM of dopamine. 18 hours later, the medium was aspirated and discarded, and 10 ml of Phosphate Buffered Saline pH 7.4 (PBS) were added to the culture dish. The cells which were detached from the culture dish into the PBS were collected. These cells represent advanced apoptotic cells. The remaining cells which were attached to the culture dish were trypsinized by the addition of 2 ml of trypsin for 2 minutes at 37° C., followed by the addition of 10 ml of a medium containing 10% of FCS. The cells were then washed with PBS containing 2% Bovine Serum Albumin (BSA), and resuspended in TBS containing 2% BSA (TBS-BSA). These cells were regarded as early apoptotic cells. […] Only non-treated cells that were attached to the culture dish were used as control cells for the FACS analysis.
A set of 3 different cell types was taken:
The incubation with the NST300 compounds or control compound was performed in a final volume of 100 μl TBS-BSA, 5 μg/ml of propidium iodide (PI) and 750 nM of the tested compound or the control compound.
PI is a red fluorescent dye that stains DNA. […] Only cells that are in advanced apoptotic stages, or cells that have already died by apoptosis or necrosis will be permeable to PI and will be stained with the dye. […] The cells were then washed in 500 μl of cold TBS-BSA and centrifugated as before. The cells were then suspended in 100 μl of TBS-BSA containing streptavidin conjugated to fluorescein (FITC). […] Thereafter, the cells were washed three times in TBS-BSA and were taken for FACS analysis.
The FACS analysis was performed on a Beckton-Dickinson cell sorter, using lysis II software. Excitation was at 488 nm and the emission or FITC detection was at 535 nm and for PI detection at 585 nm.

[5] = system: clotting induced by negatively charged phospholipids in normal plasma; conditions: 0.5-50 μM; control clotting time 40 seconds
Experimental: The ability of NST300 compounds to inhibit coagulaton catalyzed by negatively—charged phospholipids was evaluated in a standard coagulation test of the Russell viper venom (RVV) assay. The RVV reagent directly activates factor x present in the plasma, thus promoting prothrombinase complex formation. This reagent is widely used as a standard phospholipid responsive clotting test. (Thiagarajan et al., Blood, 1986; 869-874).
The RVV reagent kit, containing RVV and negatively charged phospholipids, from Gradipore, Australia was used. The reactions were started by mixing 100 μl of RVV reagent, and 100 μl of quality control plasma collected from normal individuals (commercially available from Instrumentation Laboratory, Italy). Clotting time was determined as the time-point beyond which the continuously mixed reaction ingredients in the test tube, could no longer be aspirated with a pasteur pipette. Clotting time was measured independently by two separate researchers.

[6] = system: Cardiolipin (CL) / anti β2GPI
Experimental: Antiphospholipid antibodies (APLA) comprise a family of antibodies characterized by their reactivity with negatively charged phospholipids in vitro. The target or many anti-phospholipid antibodies is either a complex between anionic phospholipid and the plasma protein Apolipoprotein-H (β2GPI) or the protein β2GPI alone bound to PS (McNeil et al., 1990, Matsurra et al., 1994). […] The assay was performed as essentially described above for anti CL ELISA with several modifications. […] Following washes, the wells were incubated for 1 hour with 1/10000 of Peroxidase-conjugated affinity purified rabbit anti goat IgG (Jackson Immunoresearch lab. PA) in PBS/BSA buffer. Washes and development were as described for anti CL ELISA. In the following experiments, CL coated wells were incubated with 1/500 dilution or affinity purified goat anti-human β2GPI in 10% normal plasma (as a source for β2GPI protein and buffering condition).

Myristate-KKKKKRFSFKKSFKLSGFSFKKNKKK (SEQUENCE ID NO. 2)-(biotin) [NST302]
cells FITC positive [1]: About 70% | staining in normal hepatocytes ([2]; animals injected with NST302 only): never observed | staining of liver in anti-Fas treated mice ([2]; intravenous, 5 μM, avidin biotin peroxidase detection): observed at cytoplasma and cytoplasmatic border of apoptotic hepatocytes | delay factor of time needed to achieve 50% of thrombin activity ([3]; 25 μM): 2.25 | time needed to achieve 50% of thrombin activity ([3]; 25 μM): 4.5 min | rate of thrombin activity and lag time for activating the reaction ([3]; 5-25 μM): delayed | concentration at which inhibition of thrombin generation is observed already ([3]; 5-25 μM tested): 5 µM | binding intensity (FITC mean value) compared with NST301 ([4]; apoptotic cells): higher binding intensity | binding intensity: ratio of FITC mean value of apoptotic cells to that of control cells ([4]; early apoptotic cells, FIG. 3b): 9 fold | increase of clotting time by a factor as compared to control [5]: 3.1 | concentration of complete inhibition of anti β2GPI binding to CL ([6]; 10% normal plasma): 50 µM | concentrations giving significant displacement of anti β2GPI from CL ([6]; 10% normal plasma): 0.1 to 50 µM | inhibition of anti β2GPI binding to CL ([6]; FIG. 6c): Complete inhibition
